According to ChEMBL document CHEMBL1201862, “PubChem BioAssay data set” (2004):
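Where inhibition never reached the appropriate level, the endpoint shown equals the highest concentration tested. Otherwise, values were interpolated linearly from a five-concentration, 48-hour dose response in 96-well plates. Here, GI50 denotes the concentration required for 50% inhibition of growth.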 Calls of active or inactive are those of the source. No stated cut-off is given here; in the data, active = GI50 up to about 1.1 µM and inactive = higher. Where a SMILES comes first, the peptide text is derived from it. The star is where a group is joined. Cbz = O=C(OCc1ccccc1)*

How the values were obtained:
Assay in all cases: inhibition of tumour cell growth, NCI panel, 48 h
[1] = system: TK-10
[2] = system: HCT-116
[3] = system: SF-268
[4] = system: OVCAR-4
[5] = system: U-251
[6] = system: LXFL 529
[7] = system: SW-620
[8] = system: SK-MEL-28
[9] = system: HOP-62
[10] = system: SN12C
[11] = system: A549
[12] = system: Malme-3M
[13] = system: M14
[14] = system: LOX IMVI
[15] = system: SNB-75
[16] = system: SK-OV-3
[17] = system: K562
[18] = system: CCRF-CEM
[19] = system: SF-539
[20] = system: MDA-MB-231

SMILES | GI50 [1] | GI50 [2] | GI50 [3] | GI50 [4] | GI50 [5] | GI50 [6] | GI50 [7] | GI50 [8] | GI50 [9] | GI50 [10] | GI50 [11] | GI50 [12] | GI50 [13] | GI50 [14] | GI50 [15] | GI50 [16] | GI50 [17] | GI50 [18] | GI50 [19] | GI50 [20]
CC1=C(C#N)C(=O)CC(c2ccc(Cl)cc2)N(C)N1 (configuration not stated) | > 100 µM (inactive) | > 100 µM (inactive) | > 100 µM (inactive) | > 100 µM (inactive) | > 100 µM (inactive) | > 100 µM (inactive) | > 100 µM (inactive) | > 100 µM (inactive) | > 100 µM (inactive) | > 100 µM (inactive) | > 100 µM (inactive) | > 100 µM (inactive) | > 100 µM (inactive) | > 100 µM (inactive) | > 100 µM (inactive) | > 100 µM (inactive) | – | – | – | –
O=C1Nc2ccc(Cl)c(I)c2C1=O | 38.5 µM (inactive) | 15.2 µM (inactive) | 17.4 µM (inactive) | 18.1 µM (inactive) | 17.2 µM (inactive) | 16.8 µM (inactive) | 19.5 µM (inactive) | 17.8 µM (inactive) | 19.5 µM (inactive) | 17.2 µM (inactive) | 44.7 µM (inactive) | 20.2 µM (inactive) | 17 µM (inactive) | 18.5 µM (inactive) | 22.8 µM (inactive) | 17.9 µM (inactive) | 22.3 µM (inactive) | 15.4 µM (inactive) | – | –
CCN(CC)CCSc1c2ccccc2nc2c(OC)ccc(OC)c12 | 4.97 µM (inactive) | 3.04 µM (inactive) | 15.1 µM (inactive) | 10.7 µM (inactive) | 30.3 µM (inactive) | 2.3 µM (inactive) | 2.08 µM (inactive) | 2.94 µM (inactive) | 31.8 µM (inactive) | 5.73 µM (inactive) | 29.3 µM (inactive) | > 41.2 µM (inactive) | 2.44 µM (inactive) | 4.81 µM (inactive) | > 49.7 µM (inactive) | 36 µM (inactive) | 2.94 µM (inactive) | 2.13 µM (inactive) | – | –
O=C(O)C1(C(=O)O)CC1 | > 100 µM (inactive) | > 100 µM (inactive) | > 100 µM (inactive) | > 100 µM (inactive) | > 100 µM (inactive) | > 100 µM (inactive) | > 100 µM (inactive) | > 100 µM (inactive) | > 100 µM (inactive) | > 100 µM (inactive) | > 100 µM (inactive) | > 100 µM (inactive) | 54.7 µM (inactive) | – | > 100 µM (inactive) | > 100 µM (inactive) | > 100 µM (inactive) | > 100 µM (inactive) | > 100 µM (inactive) | –
N#Cc1c(-c2ccc([N+](=O)[O-])cc2)c(C#N)c(=O)n(NS(=O)(=O)c2ccccc2)c1S | > 100 µM (inactive) | 19.4 µM (inactive) | 30 µM (inactive) | > 100 µM (inactive) | 41.3 µM (inactive) | – | 22.1 µM (inactive) | 61.9 µM (inactive) | > 100 µM (inactive) | 17.4 µM (inactive) | 39.9 µM (inactive) | 48.1 µM (inactive) | 37 µM (inactive) | 18.4 µM (inactive) | 39.6 µM (inactive) | 79.8 µM (inactive) | 30.2 µM (inactive) | 16 µM (inactive) | 20 µM (inactive) | 21.3 µM (inactive)
CCOC(=O)C1C2CCC(C2)C1(CCl)C(=O)OCC (configuration not stated) | > 100 µM (inactive) | > 100 µM (inactive) | > 100 µM (inactive) | > 100 µM (inactive) | > 100 µM (inactive) | > 100 µM (inactive) | > 100 µM (inactive) | > 100 µM (inactive) | > 100 µM (inactive) | > 100 µM (inactive) | > 100 µM (inactive) | > 100 µM (inactive) | > 100 µM (inactive) | > 100 µM (inactive) | – | > 100 µM (inactive) | > 100 µM (inactive) | > 100 µM (inactive) | – | –
OC(CC(CC(O)(C(F)(F)Cl)C(F)(F)Cl)=NNc1ccccc1)(C(F)(F)Cl)C(F)(F)Cl | 3.88 µM (inactive) | 1.98 µM (inactive) | 2.55 µM (inactive) | 3.33 µM (inactive) | 3.3 µM (inactive) | – | 3.27 µM (inactive) | 2.92 µM (inactive) | 3.43 µM (inactive) | 3.36 µM (inactive) | 3.41 µM (inactive) | 3.7 µM (inactive) | 4.26 µM (inactive) | 2.94 µM (inactive) | 2.71 µM (inactive) | 4.04 µM (inactive) | > 10 µM (inactive) | > 10 µM (inactive) | 2.95 µM (inactive) | 2.78 µM (inactive)
Cc1ccc(S(=O)(=O)NNCNC(=O)c2ccccc2)cc1 | > 100 µM (inactive) | > 100 µM (inactive) | > 100 µM (inactive) | > 100 µM (inactive) | > 100 µM (inactive) | – | 94.8 µM (inactive) | > 100 µM (inactive) | > 100 µM (inactive) | > 100 µM (inactive) | > 100 µM (inactive) | > 100 µM (inactive) | > 100 µM (inactive) | 68.7 µM (inactive) | > 100 µM (inactive) | > 100 µM (inactive) | 64.4 µM (inactive) | 17.6 µM (inactive) | > 100 µM (inactive) | > 100 µM (inactive)
CN(C)c1ccc(C(C#N)N2CCCN(C(C#N)c3ccc(N(C)C)cc3)C2c2ccc(N(C)C)cc2)cc1 (configuration not stated) | > 100 µM (inactive) | > 100 µM (inactive) | > 100 µM (inactive) | > 100 µM (inactive) | > 100 µM (inactive) | – | > 100 µM (inactive) | > 100 µM (inactive) | > 100 µM (inactive) | > 100 µM (inactive) | > 100 µM (inactive) | > 100 µM (inactive) | > 100 µM (inactive) | > 100 µM (inactive) | > 100 µM (inactive) | > 100 µM (inactive) | > 100 µM (inactive) | > 100 µM (inactive) | > 100 µM (inactive) | > 100 µM (inactive)
S=C1N=C(Cl)/C(=C\c2ccco2)N1 | > 100 µM (inactive) | > 100 µM (inactive) | > 100 µM (inactive) | > 47.2 µM (inactive) | > 100 µM (inactive) | – | > 100 µM (inactive) | > 100 µM (inactive) | > 100 µM (inactive) | > 100 µM (inactive) | > 100 µM (inactive) | > 100 µM (inactive) | > 100 µM (inactive) | > 100 µM (inactive) | > 74.6 µM (inactive) | > 100 µM (inactive) | > 100 µM (inactive) | > 100 µM (inactive) | > 100 µM (inactive) | > 100 µM (inactive)
CC1=NC(C)(COC(=O)C2(C)NC(C)(CO)CO2)COC1=O (configuration not stated) | > 75 µM (inactive) | > 100 µM (inactive) | > 100 µM (inactive) | > 100 µM (inactive) | > 100 µM (inactive) | – | > 100 µM (inactive) | > 100 µM (inactive) | > 100 µM (inactive) | > 100 µM (inactive) | > 100 µM (inactive) | > 100 µM (inactive) | > 100 µM (inactive) | > 100 µM (inactive) | > 100 µM (inactive) | > 100 µM (inactive) | > 100 µM (inactive) | > 100 µM (inactive) | > 100 µM (inactive) | > 100 µM (inactive)
O=C(Oc1ccccc1)N1c2ccccc2[C@@]23O[C@]24CCC[C@H]3C#C/C=C\C#C[C@H]14 | 19.9 µM (inactive) | 11.4 µM (inactive) | 13.6 µM (inactive) | 6.85 µM (inactive) | 16.7 µM (inactive) | – | 11.4 µM (inactive) | 14 µM (inactive) | 12.9 µM (inactive) | 13.7 µM (inactive) | 0.0942 µM (active) | 10.4 µM (inactive) | 15.2 µM (inactive) | 12.9 µM (inactive) | 8.85 µM (inactive) | 0.173 µM (active) | 15.6 µM (inactive) | 15.7 µM (inactive) | 20.4 µM (inactive) | 12.3 µM (inactive)
NCCNS(=O)(=O)c1ccc(N)cc1 | > 100 µM (inactive) | > 100 µM (inactive) | > 100 µM (inactive) | > 100 µM (inactive) | > 100 µM (inactive) | – | > 100 µM (inactive) | > 100 µM (inactive) | > 100 µM (inactive) | > 100 µM (inactive) | > 100 µM (inactive) | > 100 µM (inactive) | > 100 µM (inactive) | > 100 µM (inactive) | > 100 µM (inactive) | > 100 µM (inactive) | > 100 µM (inactive) | 32.8 µM (inactive) | 49.1 µM (inactive) | > 100 µM (inactive)
O=c1/c(=C/c2ccc([N+](=O)[O-])o2)sc2n1[C@@H](c1ccc(Cl)cc1)C=C(c1cc(F)c(Cl)cc1Cl)N=2 | 16.1 µM (inactive) | 3.56 µM (inactive) | 13.8 µM (inactive) | 16.6 µM (inactive) | 8.02 µM (inactive) | – | 4.91 µM (inactive) | 24.2 µM (inactive) | 11.5 µM (inactive) | 5.5 µM (inactive) | 30.3 µM (inactive) | 17.9 µM (inactive) | 14.6 µM (inactive) | 16 µM (inactive) | 29.2 µM (inactive) | 14.8 µM (inactive) | 13.2 µM (inactive) | 4.83 µM (inactive) | 22.4 µM (inactive) | 5.07 µM (inactive)
CCOC(=O)CCC(NC(=O)C(Cc1ccccc1)NC(=O)OCc1ccccc1)C(=O)OCC (stereo not drawn) (Cbz-Phe-Glu(OEt)-OEt; configuration not given here) | 19.4 µM (inactive) | 18 µM (inactive) | 16.2 µM (inactive) | 17.7 µM (inactive) | 14.9 µM (inactive) | – | 18.2 µM (inactive) | 17.9 µM (inactive) | 18.5 µM (inactive) | 20.7 µM (inactive) | 18.8 µM (inactive) | 17.4 µM (inactive) | 15.9 µM (inactive) | 14.7 µM (inactive) | 18.7 µM (inactive) | 16.6 µM (inactive) | 37.4 µM (inactive) | 31.3 µM (inactive) | 20.3 µM (inactive) | 14.9 µM (inactive)
